# Data as given in patent US20160045487A1, “COMPOSITIONS AND METHODS FOR TREATING NEUROPATHY” (CHILDEREN'S MEDICAL CENTER CORPORATION, priority 2013, published 2016).
# Tests used:
# [1] = tested on: GFAP-DN-erbB4 mice; experiment: Hot plate (54° C.) thermal nociception test, GFAP-DN-erbB4 small fiber neuropathy model; type: in vivo, mouse
# Experimental: (§1) As a first test, a cream containing XIB4035 (1.5 mM) was applied directly to the hind paws of GFAP-DN-erbB4 and wild type mice twice daily for a period of 4 weeks starting prior to symptom onset (P21). Mice of both genotypes were also treated with the base cream containing no drug for control. Mice were tested for responses to a noxious thermal stimulus prior to the initiation of treatment and every 7 days for the duration of the experiment.
# However, in the clinic, therapy would almost certainly begin after patients present with symptoms of SFN. Therefore, it was determined whether topical XIB4035 can act as a disease-modifying agent in the GFAP-DN-erbB4 neuropathy model starting after animals are clearly symptomatic (P28). […] While IB4 labeling in mutant mice was lower than wild types regardless of treatment, IB4 signal was clearly present in mutant mice treated with XIB4035 while absent in those treated with control cream (FIG. 3D; 83% of XIB4035 treated mice (n=6) with IB4+ lamina II terminals vs 0% (n=4) in control treated mice) (FIG. 3D).
# Transgenic mouse lines used were as previously described (Lacomis et al., Muscle Nerve 26, 173-188 (2002); Comblath et al., Current opinion in Neurology 19, 446-450 (2006)). Animals were kept in the animal facility with free access to food and water. Behavioral experiments were performed in a quiet environment at the same time of day. The hot plate test was performed using a “controlled hot-plate analgesia meter” (Columbus Instruments) heated to 54° C. Paw withdrawal latency was measured as the time required for the mouse to visibly respond to the thermal stimulus, e.g. licking paws, shaking paws, or jumping off of the plate.
# (§2) The cream containing XIB4035 (1.5 mM, ZereneX Molecular Ltd., Manchester, UK) consisted of N-methyl-pyrrolidone (6.25%), isopropyl myristate (6.25%) and petroleum jelly (87.5%). Control cream had the same ingredients without XIB4035. Cream was applied twice daily to the hind paws of mice starting at P21 for a period of 4 weeks for prophylactic treatment of GFAP-DN-erbB4. […]
# [2] = tested on: GFAP-DN-erbB4 and wild type mice; experiment: Mechanical sensitivity (von Frey filaments); type: in vivo, mouse; conditions: after 4 weeks topical treatment, cream 1.5 mM
# Experimental: as §1
# Mechanical sensitivity was tested by simulation of the plantar surface of the hind paw with a series of von Frey filaments while the animal was placed on an elevated wire grid. The threshold was determined as the lowest force that evoked a visible withdrawal response. The use of animals was approved by the Animal Care and Use Committee of Children's Hospital Boston.
# [3] = tested on: mutant and wild type mice; experiment: Observation for side effects of chronic topical treatment; type: in vivo, mouse; conditions: treated twice a day for 7 weeks
# Text: Importantly, given the potential need for chronic application of XIB4035, the question of whether XIB4035 produces side effects in both mutant and wild type mice was examined.
# [4] = tested on: STZ-induced diabetic mice; experiment: Hargreaves thermal nociception test in STZ-induced diabetic mice; type: in vivo, mouse; conditions: topical cream for 16 weeks from hyperglycemia; tests from week 8
# Text: To explore the utility of XIB4035 in a more clinically relevant model, diabetic peripheral neuropathy was selected because more than 50% of all diabetic patients develop some form of peripheral neuropathy, particularly SFN. Streptozotocin (STZ) induced diabetic model was chosen, in which a single injection of STZ kills pancreatic beta cells causing diabetes and produces SFN symptoms several weeks later. Upon becoming hyperglycemic, STZ injected mice were topically treated daily with either control or XIB4035 containing cream for 16 weeks. Thermal nociceptive tests began 8 weeks after initiation of treatment and were repeated every two weeks.
# (§3) Adult female C57 Bl/6J mice were made diabetic (blood glucose >15 mmol/L) by injection of STZ (90 mg/kg i.p.) on two consecutive days, with confirmation of hyperglycemia made 7 days after STZ delivery. Paw thermal response latency of the right paw was measured every two weeks from weeks 8-16 of diabetes using a modified Hargeaves test, as described
# as §2
# [5] = tested on: diabetic mice (STZ model); experiment: Nerve conduction velocity in sciatic nerves of STZ diabetic mice; type: in vivo, mouse; conditions: cream from hyperglycemia for 16 weeks
# Experimental: To examine NCV, normo-glycemic or diabetic mice (STZ model, as described elsewhere herein) were treated with either vehicle cream or with cream containing XIB4035 from the moment they became hyperglycemic, for 16 weeks. At the end of this period, nerve conduction velocity (NCV) was measured in sciatic nerves.
# as §3
# [6] = tested on: GFAP-DN-erbB4 mice; experiment: Electron microscopy of sciatic nerve Remak bundles, GFAP-DN-erbB4 mice; type: in vivo, mouse
# Experimental: as §1
# The cream containing XIB4035 (1.5 mM, ZereneX Molecular Ltd., Manchester, UK) consisted of N-methyl-pyrrolidone (6.25%), isopropyl myristate (6.25%) and petroleum jelly (87.5%). Control cream had the same ingredients without XIB4035. Cream was applied twice daily to the hind paws of mice starting at P21 for a period of 4 weeks for prophylactic treatment of GFAP-DN-erbB4. Diabetic mice were treated twice daily for 8 weeks after streptozotocin (STZ) injection prior to onset of hyperglycemia and for another 8 weeks during neuropathy testing. Cream treatment in therapeutic studies using GFAP-DN-erbB4 mice was performed twice daily beginning after onset of SFN at P28 and either continued for 5 weeks (chronic treatment) or 1 week (acute treatment).
# Tissue was prepared as in (Lacomis, supra). Briefly, mice were perfused intracardially with 2% paraformaldehyde, 2.5% gluteraldehyde and 0.03% picric acid in 0.1 M cacodylate buffer (pH 7.2). Tissue was post-fixed overnight at 4° C. and embedded in Epon. Ultrathin sections were cut, collected on cellodin-coated grids and stained using uranyl acetate and lead citrate. Photographs were taken using the Tecnai G2 Spirit BioTWIN transmission electron microscope.
# [7] = biological target: T1, ErbB2/ErbB3 (Rattus norvegicus, UniProt P06494+Q62799); experiment: NRG1-dependent activation of ErbB2/ErbB3 in L6 muscle cells; type: cell-based
# T1 construct: endogenous in cells; host or cells: L6 muscle cells
# [8] = GFAP-DN-erbB4 mice, XIB4035 cream 4 weeks
# T1 sequence (P06494 23-1257): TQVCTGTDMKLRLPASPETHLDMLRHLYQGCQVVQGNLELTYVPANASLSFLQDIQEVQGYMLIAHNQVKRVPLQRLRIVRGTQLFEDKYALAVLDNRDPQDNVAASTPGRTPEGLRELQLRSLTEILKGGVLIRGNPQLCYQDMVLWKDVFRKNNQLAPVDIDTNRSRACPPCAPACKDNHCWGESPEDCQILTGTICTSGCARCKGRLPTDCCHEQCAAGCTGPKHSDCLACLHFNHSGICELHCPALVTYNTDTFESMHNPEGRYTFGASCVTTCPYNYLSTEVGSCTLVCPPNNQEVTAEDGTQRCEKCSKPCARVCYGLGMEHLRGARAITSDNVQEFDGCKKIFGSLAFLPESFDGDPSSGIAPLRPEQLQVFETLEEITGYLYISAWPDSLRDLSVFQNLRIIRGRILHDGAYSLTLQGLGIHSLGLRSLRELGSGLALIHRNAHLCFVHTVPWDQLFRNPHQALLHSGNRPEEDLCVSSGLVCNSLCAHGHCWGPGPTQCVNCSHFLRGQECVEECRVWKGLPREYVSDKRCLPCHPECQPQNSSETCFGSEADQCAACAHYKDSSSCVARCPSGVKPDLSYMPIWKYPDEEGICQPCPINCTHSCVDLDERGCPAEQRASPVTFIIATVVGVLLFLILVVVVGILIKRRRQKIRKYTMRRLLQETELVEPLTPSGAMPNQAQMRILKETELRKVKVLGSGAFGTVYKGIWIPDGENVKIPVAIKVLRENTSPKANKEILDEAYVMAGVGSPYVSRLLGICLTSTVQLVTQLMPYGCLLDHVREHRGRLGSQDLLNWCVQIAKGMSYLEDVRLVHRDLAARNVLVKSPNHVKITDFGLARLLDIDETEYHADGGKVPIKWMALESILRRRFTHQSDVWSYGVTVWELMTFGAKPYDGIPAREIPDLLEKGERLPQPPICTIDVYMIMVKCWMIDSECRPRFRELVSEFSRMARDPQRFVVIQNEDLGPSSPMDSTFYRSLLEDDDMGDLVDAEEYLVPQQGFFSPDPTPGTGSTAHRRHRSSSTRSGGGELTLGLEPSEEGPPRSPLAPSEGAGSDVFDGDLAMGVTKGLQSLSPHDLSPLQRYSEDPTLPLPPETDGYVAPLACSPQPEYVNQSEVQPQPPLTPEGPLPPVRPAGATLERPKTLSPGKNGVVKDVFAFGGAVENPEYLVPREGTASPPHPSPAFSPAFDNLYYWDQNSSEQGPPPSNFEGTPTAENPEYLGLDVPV
# T1 sequence (Q62799 20-1339): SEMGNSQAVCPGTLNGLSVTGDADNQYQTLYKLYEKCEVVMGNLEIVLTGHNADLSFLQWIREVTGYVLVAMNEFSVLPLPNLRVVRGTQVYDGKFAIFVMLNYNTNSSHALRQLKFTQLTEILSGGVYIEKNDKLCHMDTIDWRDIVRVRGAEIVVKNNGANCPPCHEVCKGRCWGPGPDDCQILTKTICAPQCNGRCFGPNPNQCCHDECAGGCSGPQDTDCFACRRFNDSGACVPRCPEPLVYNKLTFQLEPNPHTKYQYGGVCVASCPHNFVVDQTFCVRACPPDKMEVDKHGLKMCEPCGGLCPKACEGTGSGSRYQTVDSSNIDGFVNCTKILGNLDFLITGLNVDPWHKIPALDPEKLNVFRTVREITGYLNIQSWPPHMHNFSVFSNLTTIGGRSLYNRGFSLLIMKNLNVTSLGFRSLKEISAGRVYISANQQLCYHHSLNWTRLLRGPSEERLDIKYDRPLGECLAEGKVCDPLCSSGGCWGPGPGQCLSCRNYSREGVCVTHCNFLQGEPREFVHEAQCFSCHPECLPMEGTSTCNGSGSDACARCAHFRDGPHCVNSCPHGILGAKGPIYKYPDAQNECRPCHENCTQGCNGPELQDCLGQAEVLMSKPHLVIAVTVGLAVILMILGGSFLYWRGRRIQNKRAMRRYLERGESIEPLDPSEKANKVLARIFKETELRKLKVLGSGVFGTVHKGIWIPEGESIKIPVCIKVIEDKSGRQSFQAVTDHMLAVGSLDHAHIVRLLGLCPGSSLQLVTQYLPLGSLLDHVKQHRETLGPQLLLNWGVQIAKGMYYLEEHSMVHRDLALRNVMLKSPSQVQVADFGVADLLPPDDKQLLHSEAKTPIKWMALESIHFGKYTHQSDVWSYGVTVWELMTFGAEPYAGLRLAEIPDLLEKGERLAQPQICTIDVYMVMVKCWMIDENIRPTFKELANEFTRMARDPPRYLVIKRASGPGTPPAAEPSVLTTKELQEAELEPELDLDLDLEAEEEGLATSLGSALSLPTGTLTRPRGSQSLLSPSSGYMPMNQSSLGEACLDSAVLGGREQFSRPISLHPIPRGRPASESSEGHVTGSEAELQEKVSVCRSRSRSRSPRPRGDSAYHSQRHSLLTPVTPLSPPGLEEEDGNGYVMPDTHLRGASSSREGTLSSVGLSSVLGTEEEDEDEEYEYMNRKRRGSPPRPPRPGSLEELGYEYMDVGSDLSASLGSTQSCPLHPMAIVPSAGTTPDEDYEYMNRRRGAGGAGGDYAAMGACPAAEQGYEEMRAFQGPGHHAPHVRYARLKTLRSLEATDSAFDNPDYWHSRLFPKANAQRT
structure (smiles),measurement,setting,value
"CCN(CC)CCCC(C)Nc1cc(/C=C/c2ccccc2Cl)nc2cc(Cl)ccc12 (centres unmarked) [XIB4035, N4-{7-chloro-2-[(E)-2-(2-chloro-phenyl)-vinyl]-quinolin-4-yl}-N1,N1-diethyl-pentane-1,4-diamine]",reaction times to noxious thermal stimulus (thermal nociception),"[1]; prophylactic, cream 1.5 mM on hind paws twice daily, 4 weeks from P21, 54° C. hot plate",indistinguishable from wild type animals
same,neuropathic symptoms (thermal nociception),"[1]; therapeutic, treatment started after onset (P28), read one week later (P35), persisted with continued treatment",significant reduction in symptoms
same,neuropathic symptoms after interruption of treatment,"[1]; treatment initiated at P28, interrupted at P35",neuropathic symptoms reappeared one week later
same,effect on mechano-reception (response thresholds to mechanical stimuli),[2],no effect
same,"changes in appearance, food intake, skin health or other outward negative signs",[3],no changes
same,sensory function (thermal nociceptive tests),[4],better sensory function than those exposed to the control cream
same,nerve conduction velocity (NCV) in sciatic nerves,[5],not statistically different from that observed in control animals
same,c-fiber area,[6]; [8],1.64 ± 0.07 µm²
same,c-fibers/Remak bundle,[6]; [8],8.40 ± 0.83
same,degeneration of Remak bundles and C-fiber axons,"[6]; cream 1.5 mM twice daily P21-P49, sciatic nerve EM",prevented the degeneration of Remak bundles and C-fiber axons
same,NRG1-dependent activation of ErbB2/ErbB3,[7],did not influence
